Converted amounts (≈) assume the structure as drawn. Where two headings read alike, the source gives them in different places.
Tests used:
[1] = tested on: A2780DDP; test: Inhibition of Cancer Cell Growth (Sulforhodamine B); assay type: cell-based, Human; conditions: 48 hours exposure; for IC50: Homo sapiens, read-out: Inhibition of Cancer Cell Growth as Measured by Cell Number (IC50) A2780DDP
Experimental: (§1) After 48 hours exposure to test compounds, cells were fixed with trichloroacetic acid, and stained with Sulforhodamine B. After washing with trichloroacetic acid, bound dye was solubilized in 10 mM Tris base and optical density was determined using plate reader. Under conditions of the assay the optical density is proportional to the number of cells in the well. […] The test procedure is described in details by Philip Skehan et. al. J.Natl. Canc. […]

[2] = tested on: MCF7; test: as above; assay type: cell-based, Human; conditions: 48 hours exposure; for IC50: Homo sapiens, read-out: Inhibition of Cancer Cell Growth as Measured by Cell Number (IC50) MCF7
Experimental: as §1

[3] = tested on: SW620; test: as above; assay type: cell-based, Human; conditions: for IC50: Homo sapiens, SW-620, 48 hours exposure, read-out: Inhibition of Cancer Cell Growth as Measured by Cell Number (IC50) SW620; for Inhibition of Cancer Cell Growth as Measured by Cell Number (IC50) SW620: 48 hours exposure
Experimental: as §1

[4] = tested on: MB435; test: as above; assay type: cell-based, Human; conditions: 48 hours exposure; for IC50: Homo sapiens, read-out: Inhibition of Cancer Cell Growth as Measured by Cell Number (IC50) MB435
Experimental: as §1

[5] = tested on: SKBR3; test: as above; assay type: cell-based, Human; conditions: for IC50: Homo sapiens, SK-BR-3, 48 hours exposure, read-out: Inhibition of Cancer Cell Growth as Measured by Cell Number (IC50) SKBR3; for Inhibition of Cancer Cell Growth as Measured by Cell Number (IC50) SKBR3: 48 hours exposure
Experimental: as §1

[6] = tested on: A431; test: as above; assay type: cell-based, Human; conditions: for IC50: Homo sapiens, A-431, 48 hours exposure, read-out: Inhibition of Cancer Cell Growth as Measured by Cell Number (IC50) A431; for Inhibition of Cancer Cell Growth as Measured by Cell Number (IC50) A431: 48 hours exposure
Experimental: as §1

[7] = tested on: A2780S; test: as above; assay type: cell-based, Human; conditions: 48 hours exposure; for IC50: Homo sapiens, read-out: Inhibition of Cancer Cell Growth as Measured by Cell Number (IC50) A2780S
Experimental: as §1

[8] = tested on: LOX; test: as above; assay type: cell-based, Human; conditions: 48 hours exposure; for IC50: Homo sapiens, read-out: Inhibition of Cancer Cell Growth as Measured by Cell Number (IC50) LOX
Experimental: as §1

[9] = biological target: T1, His-tagged cytoplasmic domain of EGFR (Homo sapiens, UniProt P00533); test: Inhibition of Epidermal Growth Factor Receptor Kinase (EGF-R) using recombinant enzyme, RR-SRC peptide phosphorylation; assay type: biochemical
T1 construct: containing the EGFR cDNA encoding amino acids 645 - 1186 preceded by Met-Ala-(His)6; Met-Ala-(His)6 (N); made in house; host or cells: Sf9 insect cells, recombinant baculovirus vHcEGFR52
Experimental: The enzyme used in this assay is the His-tagged cytoplasmic domain of EGFR. […] Sf9 cells in 100 mm plates were infected at an moi of 10 pfu/cell and cells were harvested 48 h post infection. A cytoplasmic extract was prepared using 1% Triton X-100 and applied to Ni-NTA column. After washing the column with 20 mM imidazole, HcEGFR was eluted with 250 mM imidazole (in 50 mM Na2HPO4, pH 8.0, 300 mM NaCl). Fractions collected were dialyzed against 10 mM HEPES, pH 7.0, 50 mM NaCl, 10% glycerol, 1ug/mL antipain and leupeptin and 0. 1 mM Pefabloc SC. The protein was frozen in dry ice/methanol and stored -70°C.
For the enzyme reaction, 10 uL of each inhibitor (at various concentrations) were added to each well of a 96-well plate. To this was added 3 uL of enzyme (1: 10 dilution in 10mM HEPES, pH 7.4 for final conc. of 1:120). This was allowed to sit for 10 min on ice and was followed by the addition of 5 ul peptide (80 uM final conc.), 10ul of 4X Buffer (Table A), 0.25 uL ^33P-ATP and 12 uL H2O. The reaction was allowed to run for 90 min at room temperature and was followed by spotting the entire volume on to precut P81 filter papers. The filter discs were washed 2X with 0.5% phosphoric acid and radioactivity was measured using a liquid scintillation counter.

[10] = recombinant enzyme, average of the number of tests, read-out: IC50

T1 sequence (P00533 669-1210): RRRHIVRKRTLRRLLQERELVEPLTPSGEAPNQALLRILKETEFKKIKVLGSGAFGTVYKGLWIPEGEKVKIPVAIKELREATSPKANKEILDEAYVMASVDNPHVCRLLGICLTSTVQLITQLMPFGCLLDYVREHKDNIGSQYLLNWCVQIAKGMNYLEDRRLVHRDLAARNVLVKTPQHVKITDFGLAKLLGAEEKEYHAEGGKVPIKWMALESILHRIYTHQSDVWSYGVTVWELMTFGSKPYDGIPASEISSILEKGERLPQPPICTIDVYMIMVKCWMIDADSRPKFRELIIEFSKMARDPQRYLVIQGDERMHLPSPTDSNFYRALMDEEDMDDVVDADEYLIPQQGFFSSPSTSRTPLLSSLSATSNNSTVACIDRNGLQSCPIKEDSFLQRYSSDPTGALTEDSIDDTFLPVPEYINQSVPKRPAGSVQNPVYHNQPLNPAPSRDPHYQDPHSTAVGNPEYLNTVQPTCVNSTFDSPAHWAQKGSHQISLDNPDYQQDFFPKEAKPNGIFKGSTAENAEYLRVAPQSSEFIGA

Compound	IC50 [1]	IC50 [2]	IC50 [3]	IC50 [4]	IC50 [5]	IC50 [6]	IC50 [7]	IC50 [8]	IC50 [9]	IC50 [9, 10]	Inhibition of Cancer Cell Growth as Measured by Cell Number (IC50) A2780DDP [1]	Inhibition of Cancer Cell Growth as Measured by Cell Number (IC50) MCF7 [2]	Inhibition of Cancer Cell Growth as Measured by Cell Number (IC50) SW620 [3]	Inhibition of Cancer Cell Growth as Measured by Cell Number (IC50) MB435 [4]	Inhibition of Cancer Cell Growth as Measured by Cell Number (IC50) SKBR3 [5]	Inhibition of Cancer Cell Growth as Measured by Cell Number (IC50) A431 [6]	Inhibition of Cancer Cell Growth as Measured by Cell Number (IC50) A2780S [7]	Inhibition of Cancer Cell Growth as Measured by Cell Number (IC50) LOX [8]
CN(C)CC=CC(=O)Nc1ccc2ncnc(Nc3cccc(Br)c3)c2c1 [Example 66, 4-Dimethylamino-but-2-enoic acid [4-(3-bromo-phenylamino)-quinazolin-6-yl]-amide]	5.1 µg/mL (≈ 12 µM)	7.6 µg/mL (≈ 17.8 µM)	5.1 µg/mL (≈ 12 µM)	5.4 µg/mL (≈ 12.7 µM)	< 0.01 µg/mL	0.007 µg/mL (≈ 0.0164 µM)	3.9 µg/mL (≈ 9.15 µM)	4.9 µg/mL (≈ 11.5 µM)	–	–	–	–	–	–	–	–	–	–
O=C(C#CCN1CCOCC1)Nc1ccc2ncnc(Nc3cccc(Br)c3)c2c1 [Example 19, 4-Morpholin-4-yl-but-2-ynoic acid [4-(3-bromo-phenylamino)-quinazolin-6-yl]-amide]	3.32 µg/mL (≈ 7.12 µM)	6.36 µg/mL (≈ 13.6 µM)	1.1 µg/mL (≈ 2.36 µM)	5.95 µg/mL (≈ 12.8 µM)	0.003 µg/mL (≈ 0.00643 µM)	0.02 µg/mL (≈ 0.0429 µM)	4.37 µg/mL (≈ 9.37 µM)	3.55 µg/mL (≈ 7.61 µM)	50 nM	–	–	–	–	–	–	–	–	–
COCCN(C)CC#CC(=O)Nc1ccc2ncnc(Nc3cccc(Br)c3)c2c1 [Example 37]	–	–	–	–	–	–	–	–	–	4.5 nM	–	–	–	–	–	–	–	–
C=CS(=O)(=O)Nc1ccc2ncnc(Nc3cccc(Br)c3)c2c1 [Example 82, Ethenesulfonic acid[4-(3-bromo-phenylamino)-quinazolin-6-yl]-amide]	0.112 µg/mL (≈ 0.276 µM)	0.81 µg/mL (≈ 2 µM)	0.53 µg/mL (≈ 1.31 µM)	–	0.269 µg/mL (≈ 0.664 µM)	0.025 µg/mL (≈ 0.0617 µM)	0.0626 µg/mL (≈ 0.154 µM)	0.382 µg/mL (≈ 0.943 µM)	–	–	–	–	–	–	–	–	–	–
O=C(/C=C/Cl)Nc1ccc2ncnc(Nc3cccc(Br)c3)c2c1 [Example 47, N-[4-[(3-Bromophenyl)amino]-6-quinazolinyl]-3(E)-chloro-2-propenamide]	0.197 µg/mL (≈ 0.488 µM)	1.17 µg/mL (≈ 2.9 µM)	0.39 µg/mL (≈ 0.966 µM)	–	0.496 µg/mL (≈ 1.23 µM)	0.023 µg/mL (≈ 0.057 µM)	0.01 µg/mL (≈ 0.0248 µM)	0.0772 µg/mL (≈ 0.191 µM)	–	0.3 nM	–	–	–	–	–	–	–	–
Nc1c(Nc2ccc3ncnc(Nc4cccc(Br)c4)c3c2)c(=O)c1=O [Example 51, 3-Amino-4-[4-(3-bromo-phenylamino)-quinazolin-6-ylamino]-cyclobut-3-ene-1,2-dione]	6.92 µg/mL (≈ 16.9 µM)	> 100 µg/mL	> 100 µg/mL	> 100 µg/mL	6.21 µg/mL (≈ 15.1 µM)	6.84 µg/mL (≈ 16.7 µM)	56.9 µg/mL (≈ 139 µM)	56.5 µg/mL (≈ 138 µM)	–	7 nM	–	–	–	–	–	–	–	–
CSSC(C)C(=O)Nc1ccc2ncnc(Nc3cccc(Br)c3)c2c1 (centres unmarked) [Example 73, N-[4-(3-Bromo-phenylamino)-quinazolin-6-yl]-2-methyldisulfanyl-propionamide]	3 µg/mL (≈ 6.68 µM)	5.04 µg/mL (≈ 11.2 µM)	3.65 µg/mL (≈ 8.12 µM)	–	–	1.07 µg/mL (≈ 2.38 µM)	1.77 µg/mL (≈ 3.94 µM)	3.1 µg/mL (≈ 6.9 µM)	–	–	–	–	–	–	–	–	–	–
N-[4-(3-Bromo-phenylamino)-quinazolin-6-yl]-2-morpholin-4-ylmethyl-acrylamide [Example 63]	–	–	–	–	–	–	–	–	–	–	4.0 µg/mL	17 µg/mL	5.5 µg/mL	4.5 µg/mL	<0.01 µg/mL	0.6 µg/mL	0.8 µg/mL	3.9 µg/mL
CN1CCN(CC#CC(=O)Nc2ccc3ncnc(Nc4cccc(Br)c4)c3c2)CC1 [Example 34, 4-(4-Methyl-piperazin-1-yl]-but-2-ynoic acid [4-(3-bromophenylamino)-quinazolin-6-yl]-amide]	–	–	–	–	–	–	–	–	–	35 nM	–	–	–	–	–	–	–	–
O=c1c(Nc2ccc3ncnc(Nc4cccc(Br)c4)c3c2)c(N2CCOCC2)c1=O [Example 52, 3-[4-(3-Bromo-phenylamino)-quinazolin-6-ylamino]-4-morpholin-4-yl-cyclobut-3-ene-1,2-dione]	41.1 µg/mL (≈ 85.7 µM)	53.1 µg/mL (≈ 111 µM)	> 100 µg/mL	26.8 µg/mL (≈ 55.8 µM)	38 µg/mL (≈ 79.1 µM)	8.42 µg/mL (≈ 17.5 µM)	27 µg/mL (≈ 56.3 µM)	7.6 µg/mL (≈ 15.8 µM)	–	–	–	–	–	–	–	–	–	–
O=C(C=CCBr)Nc1ccc2ncnc(Nc3cccc(Br)c3)c2c1 [Example 65, 4-Bromo-but-2-enoic acid [4-(3-bromo-phenylamino)-quinazolin-6-yl]-amide]	6.5 µg/mL (≈ 14.1 µM)	42 µg/mL (≈ 90.9 µM)	8.1 µg/mL (≈ 17.5 µM)	13 µg/mL (≈ 28.1 µM)	0.3 µg/mL (≈ 0.649 µM)	3.2 µg/mL (≈ 6.92 µM)	5.2 µg/mL (≈ 11.3 µM)	5.3 µg/mL (≈ 11.5 µM)	–	–	–	–	–	–	–	–	–	–
O=C(Nc1ccc2ncnc(Nc3cccc(Br)c3)c2c1)C1CO1 (centres unmarked) [Example 81, Oxirane-2-carboxylic acid [4-(3-bromo-phenylamino)-quinazolin-6-yl]-amide]	0.311 µg/mL (≈ 0.807 µM)	1.03 µg/mL (≈ 2.67 µM)	0.584 µg/mL (≈ 1.52 µM)	–	0.306 µg/mL (≈ 0.794 µM)	0.34 µg/mL (≈ 0.883 µM)	0.257 µg/mL (≈ 0.667 µM)	0.386 µg/mL (≈ 1 µM)	–	0.7 nM	–	–	–	–	–	–	–	–
CN1CCC=C(C(=O)Nc2ccc3ncnc(Nc4cccc(Br)c4)c3c2)C1 [Example 53]	4.73 µg/mL (≈ 10.8 µM)	5.09 µg/mL (≈ 11.6 µM)	–	4.31 µg/mL (≈ 9.83 µM)	–	0.44 µg/mL (≈ 1 µM)	2.89 µg/mL (≈ 6.59 µM)	5.62 µg/mL (≈ 12.8 µM)	60 nM	–	–	–	–	–	–	–	–	–
COCCN(CC#CC(=O)Nc1ccc2ncnc(Nc3cccc(Br)c3)c2c1)CCOC [Example 31, 4-[Bis-(2-methoxy-methyl]-amino]-but-2-ynoic acid [4-(3-bromophenylamino)-quinazolin-6-yl]-amide]	0.6 µg/mL (≈ 1.17 µM)	–	0.4 µg/mL (≈ 0.781 µM)	0.7 µg/mL (≈ 1.37 µM)	< 0.01 µg/mL	0.01 µg/mL (≈ 0.0195 µM)	0.2 µg/mL (≈ 0.39 µM)	0.5 µg/mL (≈ 0.976 µM)	–	2 nM	–	–	–	–	–	–	–	–
4-Diethylamino-but-2-enoic acid [4-(3-bromo-phenylamino)-quinazolin-6-yl]-amide [Example 67]	–	–	–	–	–	–	–	–	–	–	43 µg/mL	59 µg/mL	52 µg/mL	45 µg/mL	<0.01 µg/mL	0.01 µg/mL	22 µg/mL	46 µg/mL
